According to PMC10770148, “Transport and inhibition mechanism for VMAT2-mediated synaptic vesicle loading of monoamines” (Cell Research, 2024):
Like-named read-outs stand apart in the source and are kept apart here. Each block holds one compound with its values, some of them ahead of it.

What was measured:
VMAT2 Y433F = target: T1, VMAT2 Y433F (Homo sapiens, UniProt Q05940, Y433F); assay: MST binding to VMAT2 Y433F mutant; conditions: Y433F variant, mean ± SEM
T1 construct: The eGFP-tagged full-length VMAT2 or VMAT2 mutants was purified by size exclusion chromatography; made in house; host or cells: Expi293 cells
Method: (§1) The eGFP-tagged full-length VMAT2 or VMAT2 mutants was purified by size exclusion chromatography in the assay buffer (50 mM HEPES, 150 mM NaCl, 0.01% DDM, 0.001% CHS, pH 7.4) as described but without cleavage. Peak fractions were pooled and diluted to 40 nM. […] For MST measurements, a series of 16 sequential 1:1 dilutions were prepared using assay buffer for each ligand, and each ligand dilution was mixed 1:1 with diluted protein to final protein concentration of 20 nM and final ligand concentrations in the μM to nM range. The samples were incubated for 10 min at room temperature, and then loaded into Standard Monolith Capillaries (Cat# MO-K022, NanoTemper Technologies). Measurements were carried out with a Monolith NT.115 device at 80% LED power and 40% MST power. Kd was determined using the MO. Affinity Analysis software (version 2.3, NanoTemper Technologies, Germany) is with the Kd fit function. Capillaries displaying aggregation or adsorption were excluded. Data of at least three independently pipetted measurements were analyzed and Kd is expressed as mean ± SEM. Binding curves were plotted by GraphPad Prism Prism 9.5.1 (GraphPad Software Inc., San Diego, USA).

VMAT2_WT = VMAT2_WT (Homo sapiens, UniProt Q05940); assay: MST binding to WT VMAT2
Method: as §1

VMAT2 and VMAT1 = test system: VMAT2 and VMAT1; set-up: method as in PMID 8643547; conditions: cited from earlier work
VMAT2 L37F = target: T2, VMAT2 L37F (Homo sapiens, UniProt Q05940, L37F); assay: MST binding to VMAT2 L37F mutant
T2 construct: The eGFP-tagged full-length VMAT2 or VMAT2 mutants was purified by size exclusion chromatography; made in house; host or cells: Expi293 cells
Method: as §1

[1] = target: T3, VMAT2 Leu124 and Leu125 mutant (Homo sapiens, UniProt Q05940, L124R/L125R); assay: MST binding to VMAT2 Leu124/Leu125 mutant; conditions: MST (Fig. S9a), versus WT
T3 construct: The eGFP-tagged full-length VMAT2 or VMAT2 mutants was purified by size exclusion chromatography; made in house; host or cells: Expi293 cells
Method: as §1

VMAT1_WT = target: T4, VMAT1_WT (Homo sapiens, UniProt P54219); assay: MST binding to WT VMAT1
T4 sequence (P54219 1-525): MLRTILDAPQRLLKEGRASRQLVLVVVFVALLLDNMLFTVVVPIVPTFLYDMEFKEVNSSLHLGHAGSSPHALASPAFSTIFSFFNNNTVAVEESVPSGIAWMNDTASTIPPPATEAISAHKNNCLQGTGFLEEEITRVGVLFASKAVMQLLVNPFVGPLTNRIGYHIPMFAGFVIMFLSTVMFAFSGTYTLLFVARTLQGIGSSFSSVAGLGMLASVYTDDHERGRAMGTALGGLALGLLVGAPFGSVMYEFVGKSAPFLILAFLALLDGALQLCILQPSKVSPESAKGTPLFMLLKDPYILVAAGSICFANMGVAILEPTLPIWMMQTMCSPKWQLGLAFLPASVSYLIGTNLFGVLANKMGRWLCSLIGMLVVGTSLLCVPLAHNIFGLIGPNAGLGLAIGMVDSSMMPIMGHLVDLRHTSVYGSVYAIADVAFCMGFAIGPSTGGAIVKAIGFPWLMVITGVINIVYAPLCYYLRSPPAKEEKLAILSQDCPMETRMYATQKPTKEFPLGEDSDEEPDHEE

VMAT2 I308V = target: T5, VMAT2 I308V (Homo sapiens, UniProt Q05940, I308V); assay: MST binding to VMAT2 I308V mutant; conditions: I308V variant, mean ± SEM
T5 construct: The eGFP-tagged full-length VMAT2 or VMAT2 mutants was purified by size exclusion chromatography; made in house; host or cells: Expi293 cells
Method: as §1

VMAT2 W318A = target: T6, VMAT2 W318A (Homo sapiens, UniProt Q05940, W318A); assay: MST binding to VMAT2 W318A mutant; conditions: MST (Fig. S9a), versus WT
T6 construct: The eGFP-tagged full-length VMAT2 or VMAT2 mutants was purified by size exclusion chromatography; made in house; host or cells: Expi293 cells
Method: as §1

VMAT1 = test system: VMAT1; set-up: method as in PMID 23506877; conditions: cited from earlier work
VMAT2 = test system: VMAT2; set-up: method as in PMID 23506877; conditions: cited from earlier work
VMAT2 E312A = assay: MST binding to VMAT2 E312A mutant; set-up: species or system human; conditions: E312A versus WT, MST (Fig. S9a)
Method: as §1

VMAT2 N34A = assay: MST binding to VMAT2 N34A mutant; set-up: species or system human; conditions: N34A versus WT
Method: as §1

VMAT2 V232L = target: T7, VMAT2 V232L (Homo sapiens, UniProt Q05940, V232L); assay: MST binding to VMAT2 V232L mutant; conditions: V232L variant, mean ± SEM
T7 construct: The eGFP-tagged full-length VMAT2 or VMAT2 mutants was purified by size exclusion chromatography; made in house; host or cells: Expi293 cells
Method: as §1

T2 sequence (Q05940 whole entry L37F): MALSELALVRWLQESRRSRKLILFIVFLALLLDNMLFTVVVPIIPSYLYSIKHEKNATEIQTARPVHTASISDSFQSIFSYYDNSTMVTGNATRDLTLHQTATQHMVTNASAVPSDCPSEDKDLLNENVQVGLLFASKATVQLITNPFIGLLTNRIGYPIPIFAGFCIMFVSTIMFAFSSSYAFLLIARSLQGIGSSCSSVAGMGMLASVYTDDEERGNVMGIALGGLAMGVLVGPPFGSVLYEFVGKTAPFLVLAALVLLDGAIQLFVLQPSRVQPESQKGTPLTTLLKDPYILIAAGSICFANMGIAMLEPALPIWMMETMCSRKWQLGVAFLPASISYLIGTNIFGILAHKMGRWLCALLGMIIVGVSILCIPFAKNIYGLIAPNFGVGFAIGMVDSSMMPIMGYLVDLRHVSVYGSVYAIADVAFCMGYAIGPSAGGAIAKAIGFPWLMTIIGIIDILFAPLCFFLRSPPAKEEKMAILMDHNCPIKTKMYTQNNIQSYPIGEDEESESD
Chain of VMAT2_WT (Q05940 whole entry): as the sequence (Q05940 whole entry L37F) above, with F37L counted along it
T1 sequence (Q05940 whole entry Y433F): as the sequence (Q05940 whole entry L37F) above, with F37L, Y433F counted along it
T3 sequence (Q05940 whole entry L124R/L125R): as the sequence (Q05940 whole entry L37F) above, with F37L, L124R, L125R counted along it
T6 sequence (Q05940 whole entry W318A): as the sequence (Q05940 whole entry L37F) above, with F37L, W318A counted along it
T5 sequence (Q05940 whole entry I308V): as the sequence (Q05940 whole entry L37F) above, with F37L, I308V counted along it
T7 sequence (Q05940 whole entry V232L): as the sequence (Q05940 whole entry L37F) above, with F37L, V232L counted along it

Kd (VMAT2 Y433F): 3440 ± 1130 nM
Kd (VMAT2_WT): 3300 ± 1010 nM
SMILES: NCCc1c[nH]c2ccc(O)cc12 [5-HT, serotonin]

SMILES: COC(=O)[C@H]1[C@H]2C[C@@H]3c4[nH]c5cc(OC)ccc5c4CCN3C[C@H]2C[C@@H](OC(=O)c2cc(OC)c(OC)c(OC)c2)[C@@H]1OC [RES, reserpine]
affinity or preference VMAT2 versus VMAT1 (VMAT2 and VMAT1): slight preference for VMAT2 over VMAT1

Kd (VMAT2 Y433F): 437 ± 141 nM
reduction of TBZ binding by L37F variant (VMAT2 L37F; L37F versus WT VMAT2, MST): 45 fold
Kd (VMAT2 L37F; MST, L37F variant, mean ± SEM): 2780 ± 1080 nM
TBZ association, Leu124 and Leu125 perturbations [1]: largely diminished TBZ association
difference in affinity between VMAT2 and VMAT1 (VMAT1_WT; 60 nM vs 9.38 μM): ~150 fold
Kd (VMAT1_WT; VMAT1 WT, mean ± SEM): 9380 nM
Kd (VMAT2 I308V): 168 ± 103 nM
TBZ binding, W318A mutant (VMAT2 W318A): substantial reduction in TBZ binding
decrease in TBZ binding affinity, E312A mutant (VMAT2 E312A): 8 fold
Kd (VMAT2_WT; MST, VMAT2 WT, mean ± SEM, n = 3–4, read-out: Kd): 60 nM
reduction in TBZ binding affinity, N34A substitution (VMAT2 N34A): 7 fold
Kd (VMAT2 V232L): 22900 ± 20000 nM
SMILES: COc1cc2c(cc1OC)C1CC(=O)C(CC(C)C)CN1CC2 (stereo not drawn) [TBZ, tetrabenazine]
IC50 difference VMAT2 versus VMAT1 (VMAT1; 0.3 μM vs 3 μM): 10 fold
IC50 (VMAT1; VMAT1): 3000 nM
affinity or preference VMAT2 versus VMAT1 (VMAT2 and VMAT1): selectively target VMAT2

SMILES: NCCc1c[nH]cn1 [histamine]
higher affinity of VMAT2 than VMAT1 (VMAT2 and VMAT1; substrates): 30 fold

SMILES: O=C(c1ccc(F)cc1)C1CCN(CCn2c(=O)[nH]c3ccccc3c2=O)CC1 [ketanserin]
affinity or preference VMAT2 versus VMAT1 (VMAT2 and VMAT1): slight preference for VMAT2 over VMAT1
